Measured values as given in ChEMBL document CHEMBL4483862, “Open-source discovery of chemical leads for next-generation chemoprotective antimalarials” (2018).

System: Plasmodium berghei
Test: Luciferase/luciferin-expressing antifolate-resistant parasites were used to infect a culture of HepG2 cells that were pre-incubated with compounds. Infected hepatocytes emit light due to the luciferase reaction. Assay results are presented as the percent inhibition of light emission compared to control. […]
Assay type: functional
Conditions: sporozoite; for IC50: read-out: LUCIFERASE INFECTION ASSAY - IC50; for IC90: read-out: LUCIFERASE INFECTION ASSAY - IC90

Row | SMILES | IC50 [µM] | IC90 [µM]
1 | COC(=O)c1cccc(OC(=O)/C=C/c2ccc(-c3ccccc3)s2)c1 | > 10 | > 10
2 | COc1cc(OC)cc(C2c3c(C)nn(-c4ccccc4)c3NC(=O)C2NC(=O)c2ccccc2)c1 (configuration not stated) | > 10 | > 10
3 | O=C(COC(=O)c1cc(-c2ccccc2)c(N2CCOCC2)s1)c1ccc2c(c1)OCCO2 | > 10 | > 10
4 | COc1ccc(/C=C/C(=O)N2CCCC2c2cccs2)cc1S(=O)(=O)N1CCCCC1 (configuration not stated) | > 10 | > 10
5 | Cc1nc2ccccn2c1C(=O)N/N=C/c1c(-c2ccccc2)n(-c2ccccc2)c2ccccc12 | > 10 | > 10
6 | COc1ccc2nc(N(Cc3ccccc3)C(=O)C3Cc4ccccc4C(=O)O3)sc2c1 (configuration not stated) | > 10 | > 10
7 | Cc1cc(OCC(=O)/N=c2/sccn2C)c(C(C)C)cc1Cl | > 10 | > 10
8 | CC(C(=O)Nc1cccc(S(=O)(=O)N2CCOCC2)c1)N(C)Cc1cccc(Cl)c1Cl (configuration not stated) | > 10 | > 10
9 | Cc1cc2nc(Oc3ccc4c(c3)CCC4)c3ccccc3n2n1 | > 10 | > 10
10 | COc1ccc(-n2nnnc2SCC(=O)Nc2cc(-c3ccc(C)cc3)nn2-c2ccccc2)cc1 | > 10 | > 10
11 | CC1CCN(Cc2nc3scc(-c4ccccc4)c3c(=O)n2CC(=O)N2CCc3ccccc32)CC1 | > 10 | > 10
12 | Cc1ccc(-c2cc3nc(SCCOc4ccccc4F)n(Cc4ccccc4)c(=O)c3s2)cc1 | > 10 | > 10
13 | CCOC(=O)c1c(NC(=O)COC(=O)c2ccccc2Nc2cccc(C)c2C)sc(C(=O)N(C)C)c1C | > 10 | > 10
14 | COc1cc2c(cc1/C=C/C(=O)N(Cc1nc(=O)c3ccccc3[nH]1)CC1CCCO1)OC(C)C2 (configuration not stated) | > 10 | > 10
15 | CS(=O)(=O)N1CCc2cc(C(=O)CSc3nc(-c4cccs4)nc4ccccc34)ccc21 | > 10 | > 10
16 | Cc1noc(C)c1COc1ccc(C(=O)OCC(=O)N(C)C2(C#N)CCCCC2)cc1 | > 10 | > 10
17 | COc1ccc(NC(=O)C(OC(=O)c2ccccc2SCC(=O)Nc2c(C)n(C)n(-c3ccccc3)c2=O)c2ccccc2)cc1Cl (configuration not stated) | > 10 | > 10
18 | CC1(NC(=O)COC(=O)c2cc(Cl)c3c(c2)OCO3)CCS(=O)(=O)C1 (configuration not stated) | > 10 | > 10
19 | Cc1cc(=O)c(C(=O)Nc2cc(C(F)(F)F)ccc2N2CCCCC2)nn1-c1ccccc1Cl | > 10 | > 10
20 | Cc1ccccc1OCCCn1c(CCCNC(=O)c2ccco2)nc2ccccc21 | > 10 | > 10
21 | Cc1ccc(S(=O)(=O)N2CCC(C(=O)Nc3nnc(-c4ccc(Cl)cc4)o3)CC2)c(C)c1 | > 10 | > 10
22 | Cc1oc2cc(OC(C)C(=O)Nc3cccc([N+](=O)[O-])c3)ccc2c(=O)c1-c1ccccc1 (configuration not stated) | 8.01 | > 10
23 | Cc1cc(C)c(NC(=O)c2cc(-c3ccccc3)nn2-c2ccccc2)c(C)c1 | > 10 | > 10
24 | CC1CCN(Cc2nc(Oc3cccc4c3OC(C)(C)C4)c3c(-c4ccccc4)csc3n2)CC1 | > 10 | > 10
25 | CCOc1ccccc1OCC(=O)Nc1nc(-c2cc(C)n(-c3ccc(F)cc3)c2C)cs1 | > 10 | > 10
26 | CC1CCc2c(sc3nc(CN4CCOCC4)nc(Oc4ccc(Cl)c5cccnc45)c23)C1 (configuration not stated) | > 10 | > 10

Row | SMILES | IC50 [µM] | IC90 [µM]
27 | COc1cccc(C(CNc2nc(C)nc3sc4c(c23)CCCCC4)N2CCCC2)c1 (configuration not stated) | > 10 | > 10
28 | c1ccc(CN2CCC(Nc3nc(-c4ccccn4)nc4scc(-c5ccccc5)c34)CC2)cc1 | > 10 | > 10
29 | COc1cc(/C=N/Nc2nc(Cl)c(Cl)cc2Cl)ccc1OCC(=O)N1CC(C)OC(C)C1 (configuration not stated) | > 10 | > 10
30 | Cc1cc(C(=O)N/N=C/c2ccc(Sc3ncccn3)c([N+](=O)[O-])c2)c(C)n1-c1ccccc1 | > 10 | > 10
31 | CCCCOc1ccc(CN2CCN(CC(=O)NC)CC2)cc1OCC | > 10 | > 10
32 | CC(OC(=O)/C=C/c1ccc2ccccc2n1)C(=O)NC1CCCc2ccccc21 (configuration not stated) | > 10 | > 10
33 | COc1ccc(Cc2nnc(SCC(=O)/C(C#N)=C(\C)N)n2-c2ccc(Oc3ccccc3)cc2)cc1OC | > 10 | > 10
34 | CS(=O)(=O)c1ccc(Oc2ccc(-n3ccnc3)cc2)c([N+](=O)[O-])c1 | > 10 | > 10
35 | O=S(=O)(NCCCCOc1ccc(Cl)cc1)c1ccc(S(=O)(=O)N2CCOCC2)cc1 | 9.97 | > 10
36 | Cc1ccc(Cn2ccs/c2=N/C(=O)COC(=O)CCN2C(=O)C3CC=CCC3C2=O)cc1 (configuration not stated) | > 10 | > 10
37 | O=C(NCCc1c[nH]c2ccccc12)c1ccc2c(c1)CC(c1ccccc1)OC2=O (configuration not stated) | > 10 | > 10
38 | O=C(C1CC(=O)N(c2ccccc2F)C1)N1CCN(c2ccc(C(F)(F)F)cn2)CC1 (configuration not stated) | > 10 | > 10
39 | CCCCN(C(=O)c1cccnc1SC)c1nc2ccc(C)cc2s1 | > 10 | > 10
40 | CCOC(=O)c1c(NC(=O)C(C)N(C)CC(=O)Nc2cc(C)ccc2C)sc2c1CCC(C)C2 (configuration not stated) | > 10 | > 10
41 | Cc1ccc(S(=O)(=O)N/N=C/c2c(C)nn(-c3ccccc3)c2C)cc1[N+](=O)[O-] | > 10 | > 10
42 | O=C(CN1CC=C(c2ccccc2)CC1)NC(c1ccccc1)c1ccccc1 | > 10 | > 10
43 | CCn1c2ccccc2c2cc(/C=C3\SC(=S)N(CCCN(C)C)C3=O)ccc21 | > 10 | > 10
44 | Cc1c(C(=O)OCC(=O)/C=C2\N(C)c3ccccc3C2(C)C)sc2nc3n(c(=O)c12)CCC3 | > 10 | > 10
45 | COc1ccccc1NC(=O)c1cc2ccccc2c(CN2CCN(c3ccccc3)CC2)c1O | > 10 | > 10
46 | CCOc1cc(/C=C(\C#N)C(=O)c2cccc(OC)c2)cc(Cl)c1O | > 10 | > 10
47 | Cc1cc(O)c(C(C)C)cc1NC1=NC(=O)S/C1=C\c1cc(Cl)ccc1OCC(=O)Nc1ccc(Cl)cc1 | 2.98 | 3.24
48 | Cc1ccc(Cn2nc(C)c(C(=O)OCC(=O)/C=C3\N(C)c4ccccc4C3(C)C)c2Cl)cc1 | > 10 | > 10
49 | Cc1c(C(=O)OCC(=O)c2cc(C)n(-c3cccc(F)c3)c2C)sc2nc3n(c(=O)c12)CCC3 | > 10 | > 10
50 | CN(CCCc1[nH]nc(N)c1C#N)c1nc(-c2ccccn2)nc2scc(-c3ccccc3)c12 | 7.69 | > 10
51 | O=C(COC(=O)c1ccccc1NCCO)NC(=O)NCc1ccco1 | > 10 | > 10
52 | Cc1nnnn1/C(=C\c1ccccc1)C(=O)N(Cc1cccs1)c1ccc2c(c1)OCCO2 | > 10 | > 10

Row | SMILES | IC50 [µM] | IC90 [µM]
53 | O=C(COC(=O)c1cn(-c2ccccc2)nc1-c1cccs1)Nc1nnc(-c2ccccc2)o1 | > 10 | > 10
54 | Cc1sc2ncnc(N3CCC(C(=O)Nc4nnc(-c5cccc([N+](=O)[O-])c5)o4)CC3)c2c1C | > 10 | > 10
55 | CCN(CC)Cc1ccc(CNC(=O)c2oc3ccccc3c2CSc2nnc[nH]2)cc1 | 2.48 | > 10
56 | CCCCn1nc(C(=O)Nc2nc(-c3ccc(CCNC(C)=O)cc3)cs2)c2ccccc2c1=O | > 10 | > 10
57 | CCOc1cc(C(=O)N(CC2CCCO2)C2CCS(=O)(=O)C2)cc(OCC)c1OCC (configuration not stated) | > 10 | > 10
58 | CC(C)(C)c1ccc(NC(=O)CSc2ccc(S(=O)(=O)N3CCN(Cc4ccccc4)CC3)cn2)cc1 | 4.44 | 9.27
59 | O=C(CN1CCN(Cc2ccc(-n3cccn3)cc2)CC1)Nc1ccc(OC(F)(F)F)cc1 | > 10 | > 10
60 | CCCn1c(NC(=O)CCN(c2ccc(C)cc2)S(=O)(=O)c2ccc(C)cc2)nc2ccccc21 | > 10 | > 10
61 | C/C(N)=C(/C#N)C(=O)CSc1nnc(-c2ccc(C(C)(C)C)cc2)n1-c1cccc(Cl)c1Cl | > 10 | > 10
62 | Cc1ccc(-n2c(SCC(=O)NCCN3C(=O)S/C(=C\c4ccc(C(C)(C)C)cc4)C3=O)nc3sc4c(c3c2=O)CCCC4)c(C)c1 | > 10 | > 10
63 | CCc1ccc(CN(C)C(C)C(=O)Nc2cc(S(=O)(=O)N(C)C)ccc2C)cc1 (configuration not stated) | 8.31 | > 10
64 | C=CCNc1nc(C(=O)OCc2cc(=O)n3cc(Br)ccc3n2)cs1 | > 10 | > 10
65 | CN(C)c1ccc(C(c2cc(C(C)(C)C)c(O)c(C(C)(C)C)c2)N2CCCCC2)cc1 (configuration not stated) | > 10 | > 10
66 | COC(=O)c1c(COC(=O)/C=C/c2ccc(OCC#N)c(OC)c2)nc2ccccc2c1-c1ccccc1 | > 10 | > 10
67 | CCC(C)c1ccc(S(=O)(=O)N2CCN(C(C)C(=O)N3c4ccccc4CC3C)CC2)cc1 (configuration not stated) | > 10 | > 10
68 | Cc1csc(C(C#N)C(=O)COC(=O)c2ccccc2SCC(=O)N(C)C)n1 (configuration not stated) | > 10 | > 10
69 | Cc1cc2oc(=O)cc(COC(=O)c3cccc(S(=O)(=O)N(Cc4ccccc4)c4cccc(C(F)(F)F)c4)c3)c2cc1C(C)C | > 10 | > 10
70 | Cc1noc(C)c1CSc1ncccc1C(=O)N(C)c1ccc2ccccc2c1 | > 10 | > 10
71 | CCCCn1nc(C(=O)NC(c2ccccc2)c2ccc(OC)cc2)c2ccccc2c1=O (configuration not stated) | > 10 | > 10
72 | Cc1cccc(C=C(C(=O)Nc2ccccc2Cl)C(=O)Nc2ccccc2Cl)c1 | > 10 | > 10
73 | O=C(Nc1ccccc1C(=O)OCN1C(=O)c2ccccc2C1=O)c1ccc([N+](=O)[O-])cc1Cl | > 10 | > 10
74 | Cc1ccc(Sc2ccc(/C=c3\s/c(=C\C(=O)c4ccc(Cl)cc4)[nH]c3=O)cc2[N+](=O)[O-])cc1 | > 10 | > 10
75 | FC(F)Oc1ccccc1/C=N/n1c(-c2ccc3c(c2)OCCO3)cs/c1=N\CC1CCCO1 (configuration not stated) | > 10 | > 10
76 | COc1cc([N+](=O)[O-])ccc1NC(=O)CN1CCc2ccccc2C1 | > 10 | > 10
